The test system of the assay is MCF-7Ca tumors. In words: Growth of MCF-7Ca tumors in mice. Type of assay: in vivo. The note with it: 10 mg/kg, after twenty-eight days. As to the method:
FIG. 12. VN/14-1RA inhibition of growth of MCF-7Ca tumors in nude mice.
LNCaP cells are cultured as described above. Subconfluent cell are scraped into DPBS, counted and suspended in Matrigel (3×10^7 cells/mL). Male SCID mice 4-6 weeks old are obtained from NCI, Frederick, Md. Each mouse is inoculated s.c. with 0.1 mL of the cell suspension at two sites. Growth rate are determined from tumor volumes using calipers using well-known techniques (Yue W, Wang J, Savinov A, Brodie A, Effect of aromatase inhibitors on growth of mammary tumors in a nude mouse model, Cancer Res, July 15; 55(14):3073-7 (1995). Tumor volumes are calculated according to the equation: V=4/3×π×r1^2×r2 (r1<r2). Tumors are allowed to grow for 4-5 weeks following cell inoculation. Mice are then grouped (6 mice per group) for castration or treatment with vehicle, liarozole (as a comparison), or one of the C-4 substituted ATRA analogs (at various concentration based on IC50 and/or Ki values for each novel compound, mg/kg/day). The route of administration of C-4 substituted ATRA analogs include s.c., i.m., i.p., and oral. Tumors are measured weekly for 4-5 weeks of treatment and tumor volumes calculated. Blood is collected from the euthanized animals that are autopsied 1 hour after the last injection. Tumors are excised, weighed and stored at −80° C. until required. […]

Regarding `CC1=C(/C=C/C(C)=C/C=C/C(C)=C/C(=O)O)C(C)(C)CCC1n1ccnc1` (racemic) [VN/14-1, (±)-4-(1H-imidazole-1-yl)retinoic acid], the “size of MCF-7Ca tumors relative to control group” value is listed as “one-half”.

Values taken from US20120122908A1, “Novel C-4 Substituted Retinoids” (University of Maryland, priority 2000, published 2012).
